Results published in patent publication US8859505B2, “Cysteine protease inhibitors” (Medivir UK Ltd, priority 2010, dated 2014).

Assays:
human cathepsin S = target: T1, human cathepsin S (Homo sapiens, UniProt P25774); assay: Cathepsin S Ki determination; type: biochemical; details: baculovirus-expressed enzyme, boc-Val-Leu-Lys-AMC substrate, pH 6.5; read-out: Ki Cat. S
T1 construct: made in house; host or cells: baculovirus expression system
Method: The assay uses baculovirus-expressed human cathepsin S and the boc-Val-Leu-Lys-AMC fluorescent substrate available from Bachem in a 384 well plate format, in which 7 test compounds can be tested in parallel with a positive control comprising a known cathepsin S inhibitor comparator.
280 μL/well of 12.5% DMSO are added to rows B-H of two columns of a 96 deep well polypropylene plate. 70 μL/well of substrate is added to row A. 2×250 μL/well of assay buffer (100 mM Na phosphate, 100 mM NaCl, pH 6.5) is added to row A, mixed, and double diluted down the plate to row H.
100 μL/well of assay buffer is added to columns 2-5 and 7-12 of 4 rows of a 96 well V bottom polypropylene plate. 200 μL/well of assay buffer is added to columns 1 and 6.
2 μl of each 10 mM test compound is added to a separate well on row A, columns 1-10. Add 90 μl assay buffer containing 1 mM DTT and 2 nM cathepsin S to each well of rows B-H and 180 μl to row A. Mix row A using a multichannel pipette and double dilute to row G. Mix row H and read in the fluorescent spectrophotometer. The readings are Prism data fitted to the competitive inhibition equation, setting S=100 μM and KM=100 μM to obtain an estimate of the up to a maximum of 100 μM.
The second test compound is added to column 6 of the top row, the third to column 1 of the second row etc. Add 1 μL of comparator to column 6 of the bottom row. Mix column 1 and double dilute to column 5. Mix column 6 and double dilute to column 10.
Using an 8-channel multistepping pipette set to 5×10 μL, distribute 10 μL/well of substrate to the 384 well assay plate. Distribute the first column of the substrate dilution plate to all columns of the assay plate starting at row A. The tip spacing of the multichannel pipette will correctly skip alternate rows. Distribute the second column to all columns starting at row B.
Using a 12-channel multistepping pipette set to 4×10 μL, distribute 10 μL/well of inhibitor to the 384 well assay plate. Distribute the first row of the inhibitor dilution plate to alternate rows of the assay plate starting at A1. The tip spacing of the multichannel pipette will correctly skip alternate columns. Similarly, distribute the second, third and fourth rows to alternate rows and columns starting at A2, B1 and B2 respectively.
Mix 20 mL assay buffer and 20 μL 1M DTT. Add sufficient cathepsin S to give 2 nM final concentration.
Using the a distributor such as a Multidrop 384, add 30 μL/well to all wells of the assay plate and read in fluorescent spectrophotometer such as an Ascent.
Fluorescent readings, (excitation and emission wavelengths 390 nm and 460 nm respectively, set using bandpass filters) reflecting the extent of enzyme cleavage of the fluorescent substrate, […] the inhibitor, are linear rate fitted for each well.
Fitted rates for all wells for each inhibitor are fitted to the competitive inhibition equation using SigmaPlot 2000 to determine V, Km and Ki values.
(§1) Potential inhibitors are screened using the above assay with variable concentrations of test compound. Reactions were initiated by addition of enzyme to buffered solutions of substrate and inhibitor. Ki values were calculated according to equation 1.
(§2) [formula] where v0 is the velocity of the reaction, V is the maximal velocity, S is the concentration of substrate with Michaelis constant of KM, and I is the concentration of inhibitor.

[1] = target: T2, human recombinant cathepsin K (Homo sapiens, UniProt P43235); assay: Determination of cathepsin K proteolytic catalytic activity (Ki); type: biochemical; details: fluorogenic substrate H-D-Ala-Leu-Lys-AMC; read-out: Ki Cat. K
T2 construct: made in house; host or cells: not fixed: E coli, Pichia or Baculovirus systems named as options
T2 sequence (P43235 115-329): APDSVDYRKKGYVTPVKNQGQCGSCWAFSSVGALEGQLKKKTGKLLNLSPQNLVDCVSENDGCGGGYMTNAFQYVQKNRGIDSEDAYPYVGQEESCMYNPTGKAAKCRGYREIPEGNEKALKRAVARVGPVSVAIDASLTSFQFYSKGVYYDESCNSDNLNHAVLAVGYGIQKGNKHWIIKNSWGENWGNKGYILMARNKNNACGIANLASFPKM
Method: Convenient assays for cathepsin K are carried out using human recombinant enzyme, such as that described in PDB. • ID BC016058 standard; mRNA; HUM; 1699 BP. • DE Homo sapiens cathepsin K (pycnodysostosis), mRNA (cDNA clone MGC:23107 • RX MEDLINE;. RX PUBMED; 12477932. • DR RZPD; IRALp962G1234. • DR SWISS-PROT; P43235;
The recombinant cathepsin K can be expressed in a variety of commercially available expression systems including E coli, Pichia and Baculovirus systems. The purified enzyme is activated by removal of the prosequence by conventional methods.
Standard assay conditions for the determination of kinetic constants used a fluorogenic peptide substrate, typically H-D-Ala-Leu-Lys-AMC, and were determined in either 100 mM Mes/Tris, pH 7.0 containing 1 mM EDTA and 10 mM 2-mercaptoethanol or 100 mMNa phosphate, imM EDTA, 0.1% PEG4000 pH 6.5 or 100 mM Na acetate, pH 5.5 containing 5 mM EDTA and 20 mM cysteine, in each case optionally with […] as stabiliser. The enzyme concentration used was 5 nM. The stock substrate solution was prepared at 10 mM in DMSO. Screens were carried out at a fixed substrate concentration of 60 μM and detailed kinetic studies with doubling dilutions of substrate from 250 μM. The total DMSO concentration in the assay was kept below 3%. All assays were conducted at ambient temperature. Product fluorescence (excitation at 390 nm, emission at 460 nm) was monitored with a Labsystems Fluoroskan Ascent fluorescent plate reader. Product progress curves were generated over 15 minutes following generation of AMC product.
as §1, §2

human cathepsin L = human cathepsin L (Homo sapiens, UniProt P07711); assay: Cathepsin L Ki; type: biochemical; details: H-D-Val-Leu-Lys-AMC substrate, pH5.5; read-out: Ki Cat. L
human cathepsin L, sequence (P07711 114-333): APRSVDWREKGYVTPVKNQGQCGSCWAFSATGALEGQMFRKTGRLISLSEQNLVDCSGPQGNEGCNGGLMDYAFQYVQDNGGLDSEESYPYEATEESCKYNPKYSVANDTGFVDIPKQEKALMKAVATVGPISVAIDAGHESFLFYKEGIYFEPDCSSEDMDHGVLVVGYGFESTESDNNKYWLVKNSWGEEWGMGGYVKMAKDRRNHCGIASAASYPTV
Method: The procedure above with the following amendments is used for the determination of Ki for cathepsin L.
The enzyme is commercially available human cathepsin L (for example Calbiochem). The substrate is H-D-Val-Leu-Lys-AMC available from Bahcem. The assay buffer is 100 mM sodium acetate 1 mM EDTA, pH5.5) The DMSO stock (10 mM in 100% DMSO) is diluted to 10% in assay buffer. Enzyme is prepared at 5 nM concentration in assay buffer plus 1 mM dithiothreitol just before use. 2 μL of 10 mM inhibitor made up in 100% DMSO is dispensed into row A. 10 μL of 50 μM substrate (=1/200 dilution of 10 mM stock in DMSO, diluted in assay buffer).
as §1, §2

[2] = reference markers for permeability categories; cited from earlier work

T1 sequence (P25774 115-331): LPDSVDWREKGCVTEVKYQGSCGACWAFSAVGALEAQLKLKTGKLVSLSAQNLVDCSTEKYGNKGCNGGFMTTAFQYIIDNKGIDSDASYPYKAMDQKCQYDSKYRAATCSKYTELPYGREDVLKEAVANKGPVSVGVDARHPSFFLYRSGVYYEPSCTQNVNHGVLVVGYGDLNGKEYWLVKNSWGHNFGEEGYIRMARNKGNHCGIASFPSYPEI

| Compound | Ki (human cathepsin S) | Ki [1] | Ki (human cathepsin L) | absorption in man (%) [2] |
| --- | --- | --- | --- | --- |
| CC1(C[C@H](NC(=O)C(C)(C)C(F)(F)F)C(=O)NC2(C(=O)C(N)=O)CCC2)CCCC1 [Example A24] | 1.2 nM | 300 nM | 3000 nM | – |
| CC1(C[C@H](NC(=O)OC(C)(C)C)C(=O)NC2(C(=O)C(N)=O)CC2)CCCC1 [Example C12] | 2.7 nM | 1900 nM | 3200 nM | – |
| NC(=O)C(=O)C1(NC(=O)[C@H](CC2(F)CCCC2)NC(=O)C2(C(F)(F)F)CC2)CCC1 [Example A25] | 3.6 nM | 1300 nM | 14000 nM | – |
| NC(=O)C(=O)[C@]1(NC(=O)[C@H](CC2(F)CCCC2)NC(=O)c2cccc(-n3ccnc3)c2)C[C@H](F)C1 [Example A1, N-[1-(1-Aminooxalyl-3-fluoro-cyclobutylcarbamoyl)-2-(1-fluoro-cyclopentyl)-ethyl]-3-imidazol-1-yl-benzamide] | 0.084 nM | 500 nM | 230 nM | – |
| NC(=O)C(=O)C1(NC(=O)[C@H](CC2(F)CCCC2)NC(=O)C2(C(F)(F)F)CCC2)CCC1 [Example A28] | 31 nM | 15000 nM | 23000 nM | – |
| CC(C)OC(=O)N[C@@H](CC1(F)CCCC1)C(=O)NC1(C(=O)C(N)=O)CCC1 [Example C14] | 2.1 nM | 640 nM | 2800 nM | – |
| CC1(C[C@H](NC(=O)C2CC2)C(=O)NC2(C(=O)C(N)=O)CCC2)CCCC1 [Example A2, Cyclopropanecarboxylic acid [1-(1-aminooxalyl-cyclobutylcarbamoyl)-2-(1-methyl-cyclopentyl)-ethyl]-amide] | 0.3 nM | 630 nM | 1800 nM | – |
| NC(=O)C(=O)C1(NC(=O)[C@H](CC2(F)CCCC2)NC(=O)c2ccc(F)cc2F)CCC1 [Example A17] | 0.67 nM | 490 nM | 490 nM | – |
| CC1(C[C@H](NC(=O)C(C)(C)F)C(=O)NC2(C(=O)C(N)=O)CC(F)(F)C2)CCCC1 [Example A31] | 2.3 nM | 990 nM | 11000 nM | – |
| CC1(C[C@H](NC(=O)c2ccc(F)cc2)C(=O)NC2(C(=O)C(N)=O)CCC2)CCCC1 [Example A3] | 0.1 nM | 140 nM | 180 nM | – |
| Cc1ccc(C(=O)N[C@@H](CC2(F)CCCC2)C(=O)NC2(C(=O)C(N)=O)CCC2)cn1 [Example A7] | 0.88 nM | 650 nM | 260 nM | – |
| NC(=O)C(=O)C1(NC(=O)[C@H](CC2CCC2)NC(=O)C2CC2(F)F)CCC1 (single isomer, unassigned) [Example A43-1] | 1.3 nM | 280 nM | 4200 nM | – |
| CCC(=O)N[C@@H](CC1(C)CCCC1)C(=O)NC1(C(=O)C(N)=O)CCC1 [Example A4] | 4.9 nM | 2300 nM | 12000 nM | – |
| CC(C)(C)C[C@H](NC(=O)OC(C)(C)C)C(=O)N[C@]1(C(=O)C(N)=O)C[C@@H](F)C1 [Example C1, Tert-butyl(S)-1-((1r,3S)-1-(2-amino-2-oxoacetyl)-3-fluorocyclobutylamino)-4,4-dimethyl-1-oxopentan-2-ylcarbamate] | 12 nM | 770 nM | 11000 nM | – |
| OC[C@@H](O)[C@@H](O)[C@H](O)[C@H](O)CO [Mannitol] | – | – | – | 16% |
| CCOC(=O)N[C@@H](CC1(F)CCCC1)C(=O)NC1(C(=O)C(N)=O)CCCC1 [Example C7, (S)-ethyl(1-((1-(2-amino-2-oxoacetyl)cyclopentyl)amino)-3-(1-fluorocyclopentyl)-1-oxopropan-2-yl)carbamate] | 6.4 nM | 2500 nM | 21000 nM | – |
| NC(=O)C(=O)C1(NC(=O)[C@H](CC2(F)CCCC2)NC(=O)C2(C(F)(F)F)CC2)CC1 [Example A38] | 7.6 nM | 4600 nM | > 200000 nM | – |
| CCOC(=O)N[C@@H](CC1(F)CCCC1)C(=O)N[C@]1(C(=O)C(N)=O)C[C@@H](F)C1 [Example C5, [1-(1-Aminooxalyl-3-fluoro-cyclobutylcarbamoyl)-2-(1-fluoro-cyclopentyl)-ethyl]-carbamic acid ethyl ester] | 2.8 nM | 1100 nM | 5300 nM | – |
| CN(Cc1cnc2nc(N)nc(N)c2n1)c1ccc(C(=O)N[C@@H](CCC(=O)O)C(=O)O)cc1 [Methotrexate] | – | – | – | 20% |
| CC1(C[C@H](NC(=O)OC(C)(C)C)C(=O)NC2(C(=O)C(N)=O)CCC2)CCCC1 [Example C4] | 1.1 nM | 720 nM | 1700 nM | – |
| CCOC(=O)NC(CC1(F)CCCC1)C(=O)NC1(C(=O)C(N)=O)CCC1 (stereo not drawn) [Example C6, [1-(1-Aminooxalyl-cyclobutylcarbamoyl)-2-(1-fluorocyclopentyl)-ethyl]-carbamic acid ethyl ester] | 2.4 nM | 960 nM | 3700 nM | – |
| N[C@@H](Cc1ccccc1)C(=O)O [L-Phenylalanine] | – | – | – | 100% |
| NC(=O)C(=O)C1(NC(=O)[C@H](CC2(F)CCCC2)NC(=O)c2ccccn2)CCC1 [Example A34] | 0.77 nM | 180 nM | 710 nM | – |
| CC(C)(C)OC(=O)NC(CC1(F)CCCC1)C(=O)NC1(C(=O)C(N)=O)CC(F)C1 (stereo not drawn) [Example C3] | 1.3 nM | 440 nM | 1700 nM | – |
| CC(C)(C)OC(=O)N[C@@H](CC1(F)CCCC1)C(=O)NC1(C(=O)C(N)=O)CC1 [Example C11] | 3.7 nM | 1200 nM | 2600 nM | – |
